Numbers after ± are expanded uncertainties.
Assay: mn = molality of the nth substance listed, in mol/kg
Details: 100 kPa, Liquid; for speed of sound: Frequency=3 MHz, Single path-length method; for mass density: Vibrating tube method

O=C([O-])C(=O)[O-].[K+].[K+] [potassium oxalate] + O
speed of sound (288.15 K, m1 = 0.2): 1497 ± 1.4 m/s | speed of sound (288.15 K, m1 = 0.4): 1525.3 ± 2.1 m/s | speed of sound (288.15 K, m1 = 0.6): 1552.3 ± 1.3 m/s | speed of sound (288.15 K, m1 = 0.8): 1580.5 ± 2.6 m/s | mass density (288.15 K, m1 = 0.2): 1023.62 ± 0.58 kg/m3 | mass density (288.15 K, m1 = 0.4): 1046.97 ± 0.96 kg/m3 | mass density (288.15 K, m1 = 0.6): 1069.58 ± 1.4 kg/m3 | mass density (288.15 K, m1 = 0.8): 1092.28 ± 1.9 kg/m3 | speed of sound (298.15 K, m1 = 0.2): 1524.8 ± 1.4 m/s | speed of sound (298.15 K, m1 = 0.4): 1550.9 ± 1.6 m/s | speed of sound (298.15 K, m1 = 0.6): 1576.4 ± 2 m/s | speed of sound (298.15 K, m1 = 0.8): 1602.3 ± 2.3 m/s | mass density (298.15 K, m1 = 0.2): 1021.1 ± 0.57 kg/m3 | mass density (298.15 K, m1 = 0.4): 1044.13 ± 0.97 kg/m3 | mass density (298.15 K, m1 = 0.6): 1066.44 ± 1.4 kg/m3 | mass density (298.15 K, m1 = 0.8): 1088.95 ± 1.8 kg/m3 | speed of sound (308.15 K, m1 = 0.2): 1545.9 ± 1.4 m/s | speed of sound (308.15 K, m1 = 0.4): 1570.5 ± 1.6 m/s | speed of sound (308.15 K, m1 = 0.6): 1594.5 ± 1.9 m/s | speed of sound (308.15 K, m1 = 0.8): 1618.8 ± 2.2 m/s | mass density (308.15 K, m1 = 0.2): 1017.79 ± 0.57 kg/m3 | mass density (308.15 K, m1 = 0.4): 1040.55 ± 0.96 kg/m3 | mass density (308.15 K, m1 = 0.6): 1062.69 ± 1.4 kg/m3 | mass density (308.15 K, m1 = 0.8): 1084.89 ± 1.8 kg/m3 | speed of sound (318.15 K, m1 = 0.2): 1561.2 ± 1.3 m/s | speed of sound (318.15 K, m1 = 0.4): 1584.6 ± 2.4 m/s | speed of sound (318.15 K, m1 = 0.6): 1607.1 ± 1.6 m/s | speed of sound (318.15 K, m1 = 0.8): 1630.1 ± 2.2 m/s | mass density (318.15 K, m1 = 0.2): 1013.81 ± 0.56 kg/m3 | mass density (318.15 K, m1 = 0.4): 1036.39 ± 0.65 kg/m3 | mass density (318.15 K, m1 = 0.6): 1058.36 ± 1.6 kg/m3 | mass density (318.15 K, m1 = 0.8): 1080.46 ± 1.8 kg/m3

— the NIST ThermoML archive (doi:10.1016/j.jct.2019.06.023)
